Legend:
PCSK9 (biotinylated) = PCSK9 (biotinylated) (Homo sapiens, UniProt Q8NBP7); assay: Binding of compounds to PCSK9 by SPR (BIAcore S200, SA chip); details: for Kd: SPR, immobilized biotinylated PCSK9, test compounds diluted 3-fold from 10 µM
Procedure: Table 1. Main experimental materials and instruments
• 1) Protein: PCSK9 (biotinylated) (Acro). The protein was dissolved in water to 200 µg/mL, and the solution was stored at -80 °C. • 2) Chip: SA chip. • 3) Running buffer: 1 × HBSP + 4% DMSO + 0.1 mM CaCl2.
• 1) The chip was pre-warmed to room temperature. • 2) The required buffer was prepared and filtered through a 0.22 µm filter membrane. • 3) The chip was loaded, and parameters were written to the chip. • 4) The PCSK9 protein was diluted to 50 µg/mL in PBS. • 5) An immobilization program was set on the BIAcore S200 instrument. • 6) The immobilization program was run. • 7) The final immobilization response value was 8000 RU, and the maximum response value was 49.4 RU.
1) The compounds were serially diluted 3-fold in the running buffer. The reference compound was diluted 3-fold from 0.4 µM. The test compounds were diluted 3-fold from 10 µM. 2) A dissolution correction buffer was prepared according to the table below: Table 2. Dissolution correction buffer
3) The "LMW multi kinetics" program of the instrument was set as a running program for compound testing. • a) The association time was set at 100 s, and the dissociation time was set at 300 s. 4) The compound testing program was run.
1) Rmax = (MWanalyte/MWligand) × RL × Sm [formula] When affinity fitting was used to fit a curve, the response value of the highest concentration should be close to the fitted Rmax value for an optimal result. 2) Solvent correction and compound concentration gradients were checked. 3) The baseline, binding, and positive compound results in the test report were checked. 4) A suitable fitting method was selected according to the actual association to fit a curve. 5) Whether the fitting result met the data quality assessment criteria of the instrument was checked. Table 3. The binding of compounds of the present disclosure to PCSK9 (KD)

[1] = Stability test in hepatocytes (metabolic clearance rate); type: in vitro ADME; details: cryopreserved hepatocytes, mouse hepatocytes, 0.5 × 10^6 cells/mL, up to 120 min
Procedure: • 1) The test compounds and the control drug verapamil powder were dissolved in DMSO to prepare high-concentration stock solutions. Before use, the stock solutions were diluted with DMSO to prepare 100 µM working solutions. The final concentrations of the test compounds and verapamil were 1 µM. • 2) A tube of cryopreserved hepatocytes was taken. It was ensured that the hepatocytes were still in a low-temperature frozen state before thawing. The hepatocytes were quickly placed in a 37 °C water bath, gently shaken until all ice crystals were dispersed, sprayed with 70% ethanol, and then transferred to a biosafety cabinet. • 3) The contents of small tubes of hepatocytes from different species were poured into a centrifuge tube containing 50 mL of thawing culture medium and centrifuged at 100 g for 10 min. After centrifugation, the thawing culture medium was pipetted off, and a sufficient amount of incubation culture medium was added to obtain a cell suspension with a cell density of about 1.0 × 10^6 cells/mL. • 4) Hepatocytes were counted using Cellometer Vision, and the viable cell density was determined. The viability of hepatocytes must be greater than 75%. The hepatocyte suspension was diluted with the incubation culture medium to a viable cell density of 0.5 × 10^6 cells/mL. • 5) 198 µL of the viable cell suspension was transferred to a 96-well deep-well plate, and the deep-well plate was placed on a vortexer and pre-heated in an incubator for 10 min. In the experiment, the incubation was performed in duplicate. • 6) 2 µL of the 100 µM test compound or verapamil solution was added to each well to start a reaction, and the deep-well plate was placed back on the vortexer in the incubator. • 7) The samples were incubated. At 0 min, 15 min, 30 min, 60 min, 90 min, and 120 min, 25 µL of the suspension was taken, and 150 µL of acetonitrile containing an internal standard was added to stop the reaction. After 10 min of vortexing, the mixture was centrifuged at 3220 g at 4 °C for 45 min. […] After thorough mixing, the mixture was analyzed by UPLC-MS/MS.
All data calculations were performed through Microsoft Excel software. The peak areas were determined through an extracted ion chromatogram. Through linear fitting of the natural logarithm of the parent drug […] percentage versus time, the in vitro half-life (T1/2) of the parent drug was determined.
The in vitro half-life (T1/2) was calculated through the slope: In vitro T1/2 = 0.693/k [formula]
The in vitro clearance rate (in µL/min/10^6 cells) was calculated using the following formula: In vitro CLint = kV/N, [formula] • where V = the incubation volume per well (0.2 mL); • N = the number of cells per well (0.1 × 10^6 cells). […]

in vivo = details: male, C57BL6J, mouse, plasma, po, 10 mg/kg
Procedure: (§1) C57BL6J mice were used as test animals. […] Reference compound 1 and the example compound were both administered at a dose of 10 mg/kg. Procedure: Mice were intragastrically dosed with reference compound 1 and the example compound. At 0.25 h, 0.5 h, 1 h, 2 h, 4 h, 6 h, 8 h, and 24 h post-dose, blood samples (about 0.03 mL) were collected via peripheral venipuncture, placed into test tubes containing EDTA-K2, and centrifuged at around 4 °C at 4000 g per minute for 5 min to separate plasma, and the plasma was stored at -75 °C.
(§2) Determination of the content of the test compound in mouse plasma after the compound (at different concentrations) was orally administered: 10 µL of the mouse plasma collected at each time point post-dose was vortexed with 5 µL of a blank solution and 200 µL of a solution of dexamethasone (internal standard) in acetonitrile for 30 s. The mixture was centrifuged for 15 min (3900 rpm), and 12 µL of the supernatant was taken for LC/MS/MS analysis.

[2] = In vivo pharmacokinetic experiment in mice; details: oral, 10 mg/kg, fold of reference compound 1
Procedure: as §1, §2

[3] = system: LDLR protein level of HepG2 cells; assay: Effect on LDLR level of HepG2 cells stimulated with PCSK9 D374Y (human LDLR ELISA); type: cell-based; details: 75 µM compound; for LDLR up-regulation level" (% control): 4 nM PCSK9 D374Y, 48 h, mean of three duplicate wells; for LDLR protein level result relative to reference compound 1: fold of the result of reference compound 1
Procedure: HepG2 cells were seeded in a 96-well plate at 30,000 cells/well. The next day, 4 nM PCSK9 D374Y was added to each well to stimulate cells, and the cells were treated with a test compound at the same concentration. Three duplicate wells were set for each sample. The cells were cultured at 37 °C with 5% carbon dioxide for 48 h. The cells were washed twice with PBS, and the supernatant was discarded. The cells were then placed on ice and treated with an RIPA lysis buffer containing protease and phosphatase inhibitors at 50 µL/well. The cell culture plate was frozen overnight in a -80 °C freezer, thawed, then lysed on ice for 30 min, and then centrifuged at a low temperature for 15 min. The cell lysate was diluted 20-fold, and an ELISA was performed. A sample or a reference standard was added to a coated well plate at 50 µL/well, and the plate was incubated at room temperature for 2 h. The plate was washed 4 times with a washing buffer by aspiration, and a human LDLR conjugated antibody was added at 200 µL/well. The plate was incubated at room temperature for 2 h. The washing step was repeated, and a substrate solution was added at 200 µL/well. After 30 min, a stop solution was added at 50 µL/well, and the OD was measured at 450 nm. After the LDLR concentration in the sample wells was calculated according to a standard curve, the LDLR increase rate was calculated using the formula (sample value - mean of control wells) / mean of control wells. Data were processed using GraphPad Prism 8. Table 6. The effects of reference compound 1 and example compounds at a concentration of 75 µM on the LDLR protein level of HepG2 cells

Mouse hepatocytes = assay: Metabolite testing in mouse hepatocytes (parent drug remaining); type: in vitro ADME, Mice; details: mouse hepatocytes (ICR/CD-1, male), 10 µM
Procedure: The objective of this experiment was to identify possible metabolites of a test compound in hepatocytes of different species and speculate about its possible metabolic pathway. The test concentration of the test compound was 10 µM.
Mouse hepatocytes were preserved in liquid nitrogen.
The test compound and the control drug verapamil powder were dissolved in DMSO to prepare high-concentration stock solutions. Before use, the stock solutions were diluted with DMSO to prepare 2 mM working solutions. The final concentrations of the test compound and verapamil were 10 µM.
• 1) Before use, the hepatocyte thawing solution and the incubation solution were placed in a 37 °C water bath and pre-heated for at least 15 min. • 2) A tube of cryopreserved hepatocytes was taken. […] After centrifugation, the thawing culture medium was pipetted off, and a sufficient amount of incubation culture medium was added to obtain a cell suspension with a cell density of about 1.5 × 10^6 cells/mL. • 4) Hepatocytes were counted using Cellometer Vision, and the viable cell density was determined. […]
• 1) 1 µL of the 2 mM test compound solution was pipetted into a 24-well incubation plate, and 199 µL of the hepatocyte suspension was then added to start a reaction. […] 60 µL of the supernatant was well mixed with 60 µL of purified water, and the mixture was then analyzed by UHPLC-MS/MS. […]

Chain of PCSK9 (biotinylated) (Q8NBP7 153-692): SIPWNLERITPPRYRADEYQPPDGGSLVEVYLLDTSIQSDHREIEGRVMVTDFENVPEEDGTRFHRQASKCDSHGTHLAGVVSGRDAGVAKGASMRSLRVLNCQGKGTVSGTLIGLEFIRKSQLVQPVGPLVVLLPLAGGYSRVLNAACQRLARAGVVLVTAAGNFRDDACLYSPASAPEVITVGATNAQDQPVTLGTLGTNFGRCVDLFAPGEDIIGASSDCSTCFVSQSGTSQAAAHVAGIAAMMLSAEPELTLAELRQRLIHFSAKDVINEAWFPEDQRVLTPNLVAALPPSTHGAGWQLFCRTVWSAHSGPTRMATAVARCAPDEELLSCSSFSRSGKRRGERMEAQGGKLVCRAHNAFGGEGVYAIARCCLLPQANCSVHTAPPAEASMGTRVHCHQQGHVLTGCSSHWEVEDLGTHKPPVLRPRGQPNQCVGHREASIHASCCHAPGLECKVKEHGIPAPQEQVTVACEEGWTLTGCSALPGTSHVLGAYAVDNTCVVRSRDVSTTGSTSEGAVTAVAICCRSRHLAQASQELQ

Row | Structure (SMILES) | Kd (PCSK9 (biotinylated)) | hepatocyte CLint at 1 µM [1] | LDLR up-regulation level" (% control) [3] | other results
1 | O=c1ccccn1-c1ccc(N[C@H]2CC[C@H](Nc3ncc4c(n3)CCC4)C2)nc1 [Example 1, 1-(6-{[(1S,3S)-3-(6,7-Dihydro-5H-cyclopenta[1,2-d]pyrimidin-2-ylamino)cyclopentyl]amino}pyridin-3-yl)-1,2-dihydropyridin-2-one] | 26.3 nM | 13.2 µL/min/1e6 cells |  | 
2 | O=c1ccccn1-c1ccc(N[C@H]2CC[C@H](Nc3ncc4c(n3)C(F)(F)CC4)C2)nc1 [Example 2, 1-(6-{[(1S,3S)-3-[(7,7-Difluoro-6,7-dihydro-5H-cyclopenta[1,2-d]pyrimidin-2-yl)amino]cyclopentyl]amino}pyridin-3-yl)-1,2-dihydropyridin-2-one] | 68.7 nM | 21 µL/min/1e6 cells |  | 
3 | O=c1ccccn1-c1ccc(N[C@H]2CC[C@H](Nc3ncc4c(n3)OCCO4)C2)nc1 [Example 3, 1-(6-{[(1S,3S)-3-(6,7-Dihydro[1,4]dioxino[3,2-d]pyrimidin-2-ylamino)cyclopentyl]amino}pyridin-3-yl)-1,2-dihydropyridin-2-one] | 75.8 nM | < 0.1 µL/min/1e6 cells | 160 % control | AUC(0-t) (in vivo): 48000 ng·h/mL; Cmax (in vivo): 11400 ng/mL; half-life (in vivo): 2.75 h; plasma exposure level relative to reference compound 1 [2]: ~3 times; Normalized parent drug remaining proportion (%) after 240 min of incubation (Mouse hepatocytes): 98.3%; binding stronger than that of the reference compound 2 (PCSK9 (biotinylated); fold of binding strength versus reference compound 2): more than 10 times
4 | O=c1cccnn1-c1ccc(N[C@H]2CC[C@H](Nc3ncc4c(n3)OCCO4)C2)nc1 [Example 5, 2-(6-{[(1S,3S)-3-(6,7-Dihydro[1,4]dioxino[3,2-d]pyrimidin-2-ylamino)cyclopentyl]amino}pyridin-3-yl)-3H,2H-1,2-pyridazin-3-one] |  |  | 188 % control | 
5 | O=c1ccccn1-c1cnc(N[C@H]2CC[C@H](Nc3ncc4c(n3)OCCO4)C2)c(F)c1 [Example 6, 1-(5-Fluoro-6-{[(1S,3S)-3-(6,7-dihydro[1,4]dioxino[3,2-d]pyrimidin-2-ylamino)cyclopentyl]amino}pyridin-3-yl)-1,2-dihydropyridin-2-one] |  |  | 155 % control | 
6 | O=c1ccccn1-c1cnc(N[C@H]2CC[C@H](Nc3ncc4c(n3)OCCO4)C2)cn1 [Example 7, 1-(5-{[(1S,3S)-3-(6,7-Dihydro[1,4]dioxino[3,2-d]pyrimidin-2-ylamino)cyclopentyl]amino}pyrazin-2-yl)-1,2-dihydropyridin-2-one] |  |  |  | LDLR protein level result relative to reference compound 1 [3]: 1.16 times
7 | O=C1c2ccccc2CN1c1cnc(N[C@H]2CC[C@H](Nc3ncc4c(n3)OCCO4)C2)cn1 [Example 8, 2-(5-{[(1S,3S)-3-(6,7-Dihydro[1,4]dioxino[3,2-d]pyrimidin-2-ylamino)cyclopentyl]amino}pyrazin-2-yl)-2,3-dihydro-1H-isoindol-1-one] |  |  |  | LDLR protein level result relative to reference compound 1 [3]: 1.04 times
8 | O=c1ccccn1-c1ccc(N[C@H]2CC[C@H](Nc3ncc4ccccc4n3)C2)nc1 [Example 11, 1-(6-{[(1S,3S)-3-(Quinazolin-2-ylamino)cyclopentyl]amino}pyridin-3-yl)-1,2-dihydrop yridin-2-one] | 180 nM |  |  | 
9 | O=c1ccccn1-c1ccc(N[C@H]2CC[C@H](Nc3ncc4sccc4n3)C2)nc1 [Reference compound 2, reference compound] |  | 15.7 µL/min/1e6 cells |  | 
